Experiments:
[1] = target: T1, COMMD1 protein (Homo sapiens, UniProt Q8N668); assay: pulldown with biotinylated L2 peptide, SW948 total protein extract, Western blot; assay type: binding; parameters: Total extract protein from SW948 (cell line from human colon carcinoma); endogenous in cells; host or cells: SW948; details: compared to total protein extract
Method: (A) The synthetic L2 peptide (SEQ ID No. 1), synthesized using a solid phase procedure was biotinylated and used as “bait” attached to a streptavidin sepharose resin. Total extract protein from SW948 (cell line from human colon carcinoma) was used as a “prey”. These experiments are known as “pulldown”. The total extract protein was obtained from […] cells using extraction buffer (Triton X-100 0.5% 25 mM HEPES, pH 7.5, 100 mM NaCl, 1 mM EDTA, 10% glycerol, 1 mM dithiothreitol (DTT), and a protease inhibitor). The biotinylated peptide (300 μg) was incubated with 50 μL of streptavidin sepharose resin (GE Healthcare), for 1 hour, and washed with phosphate buffered saline (PBS 1×) plus 1 mM DTT were done. Then, 500 μL of total proteins were incubated with 50 μL resin containing the biotinylated peptide, at room temperature for 5 hours. Subsequently, the resin is washed extensively with PBS 1× and 1 mM DTT. Proteins remaining attached to the resin are those that interact with the peptide, and are suspended in 25 μL of electrophoresis buffer (62.5 mM Tris HCl, pH 6.9, 0.1 M DTT, 20% sodium dodecyl-sulphate (SDS), 10% glycerol and 0.01% bromophenol blue). To detect the protein of interest a polyacrylamide gel electrophoresis (7.5%) was performed, followed by immunodetection by Western blot. To detect the COMMD1 protein, a monoclonal antibody against COMMD1 protein (Sigma, clone 2A12) was used. […]
Target sequence in this assay (Q8N668 whole entry): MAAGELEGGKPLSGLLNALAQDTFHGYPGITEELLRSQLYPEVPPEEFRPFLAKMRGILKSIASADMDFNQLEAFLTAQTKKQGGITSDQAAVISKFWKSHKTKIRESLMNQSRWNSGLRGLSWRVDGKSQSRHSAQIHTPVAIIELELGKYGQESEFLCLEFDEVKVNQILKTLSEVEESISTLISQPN

[2] = system: COMMD1 nuclear localization in SW948 cells; assay: COMMD1 sub-cellular (nuclear) localization in SW948 cells, Western blot; assay type: cell-based, human; details: peptide 50 μM, 5 hours
Method: (B) SW948 cells (3×10^6 cells) were incubated for 5 hours at 37° C. and 5% CO2 with the L2 peptide (50 μM). Subsequently, cytosolic and nuclear proteins were obtained as reported (Vancurova et al., 2001, Journal of Biological Chemistry, 276: 19746-19752). The COMMD1 detection was performed by Western blot using an anti-COMMD1 antibody. […] Beta Actin was used as a control for the cytoplasmic fraction and the human ribonucleoprotein (hnRNP) as a control of the nuclear fraction.
In this experiment the objective was to identify a peptide with a higher capacity to accumulate COMMD1 in the nucleus of the cells. SW948 cells (3×10^6 cells) were incubated for 5 hours at 37° C. and 5% CO2 with L2, L551, L552, L553 and L554 peptides (50 μM). Subsequently, isolation of cytosolic and nuclear proteins was performed as described in Example 2. COMMD1 detection was performed by Western blot using an anti-COMMD1 antibody. […] Also, the interaction is related to the facilitation of nuclear accumulation of COMMD1.

[3] = target: T1, COMMD1 protein; assay: two-hybrid yeast system, L2 peptide-protein interaction; assay type: binding; parameters: expressed in transfected cells; host or cells: Saccharomyces cerevisiae Y187 (mated with AH109 carrying pGBKL2-1); details: COMMD1 deletion clones
Method: To identify anti-tumor L2 peptide-protein interactions the two-hybrid yeast system was used. For cloning the sequences corresponding to the peptide the oligonucleotides were designed as follows:
corresponding to the L2 peptide sequence: […] For cloning these sequences in the pGBKT7 NcoI-BamHI vector, sequences complementary to these sites were added at the ends of the oligonucleotides. The pGBKL2-1 recombinant plasmid, which carries the L2 peptide sequence was verified by restriction analysis and sequencing. The plasmid was transformed into the AH109 yeast strain by the lithium acetate method and grown in SD-Trp medium. It was verified that it could not be self-activated when grown on SD-Trp-His plates. For the screening of the interactions, a human liver cDNA library transformed into the Y187 strain was used. For the diploid formation and the selection of interactions, 5×10^8 AH109 cells containing the pGBKL2-1 plasmid were grown with 5×10^8 Y187 cells containing the human liver DNA library, for 4 hours, on solid medium YPDA at 30° C. Ten ml of sterile water were added on the surface of the YPDA plates, and the cells were suspended carefully with spatula and transferred to 15 plates of SD-Trp-Leu-His-Ade minimal media and grown at 30° C. for 7 days. The 74 resulting colonies were transferred to liquid SD-Trp-Leu in 96 deep well plates. […]
Target sequence in this assay (Q8N668 6-190): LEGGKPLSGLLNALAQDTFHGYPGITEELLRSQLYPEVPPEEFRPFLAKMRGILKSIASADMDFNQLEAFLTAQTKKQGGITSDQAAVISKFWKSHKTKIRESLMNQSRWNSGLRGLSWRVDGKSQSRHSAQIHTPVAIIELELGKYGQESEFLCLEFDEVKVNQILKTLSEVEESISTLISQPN

[4] = system: HT-29 tumor cells; assay: combination L552 peptide and cytostatic, MTT, CalcuSyn, HT-29; assay type: cell-based, human
Method: (§1) For this assay, HT-29 and H-125 tumor cells were seeded in 96-well plates (Costar) at a density of 1×10^4 cells mL in RPMI 1640 (Gibco) supplemented with fetal calf serum (Gibco). After 24 hours, the peptide was added to the culture medium in a dose range between 9 μM and 300 μM and the cytostatic drug was added in a range dose of 1:10 serial dilution over and below the reported IC50 for each cell line. […] The effect of concomitant treatment cytostatic-peptide was analyzed by the CalcuSyn computer software to study drug combinations (Ting-Chao Chou, 2006, Pharmacological Reviews, 58: 621-681). […] The combination 5-FU+L552 peptide allows a 20 times reduction (RI) of cytostatic in the HT-29 cell line. For the combination cisplatin+L552 peptide, the cytostatic reduction is 5 times in the H-125 cell line. […] This can reduce the adverse effects associated with chemotherapy.

[5] = system: HT-29 cell line transiently transfected with GFP-N-COMMD1; assay: chemosensitivity to 5-FU of transfected HT-29 cells, MTT; assay type: cell-based, human; details: cells expressing GFP-NCOMMD1 compared to GFP or GFP-COMMD1, 48 hours
Method: (A) The HT-29 cell line transiently transfected with constructs described above were seeded in 96-well plates (Costar) at density of 1×10^4 cells/mL in RPMI 1640 (Gibco) supplemented with fetal calf serum (Gibco) After 24 hours, the cytostatic 5-FU was added to the culture medium in a dose range between 0.025 μM and 2500 μM, in 1:10 serial dilutions. […] Finally, the plate reading at an absorbance of 492 nm was carried out. Each point was performed in duplicate, and experiments were carried out at least twice independently. The IC50 values were obtained from the respective curves of cell proliferation.

[6] = system: H-125 tumor cells; assay: combination L552 peptide and cytostatic, MTT, CalcuSyn, H-125; assay type: cell-based, human
Method: as §1

HARIKPTFRRLKWKYKGKFW [Peptide L2, Peptide previously described in application WO 07/095 867]
COMMD1 pulled down by the peptide [1]: concentrates the COMMD1 protein
COMMD1 nuclear localization / accumulation [2]: COMMD1 nuclear localization
interaction with COMMD1 (region responsible) [3]: specifically binds the region between amino acids 110-190

O=c1[nH]cc(F)c(=O)[nH]1 [Peptide 5-FU, 5-fluorouracil]
Drug 5-FU ([4]; HT-29, at Af 89%): 5000 µM
RI (5-FU) ([4]; HT-29, reduction index of the drug in combination with L552): 20
IC50 of 5-FU [5]: reduction of the IC50

N.N.[Cl][Pt][Cl] [cisplatin]
Drug cisplatin ([6]; H-125, at Af 94%): 273 µM
RI (cisplatin) ([6]; H-125, reduction index of the drug in combination with L552): 5
